Laboratory results: BindingDB's records for doi:10.1016/j.ejmech.2016.05.062 (University of Siena, 2016)
pEC50: −log10 of the molar value.

Test: Agonist activity at Smo in mouse C3H10T1/2 cells assessed as induction of cell differentiation into osteoblast incubated for 6 days by alkaline phosphatase assay

SMILES | pEC50
CNC1CCC(N(Cc2cccc(-c3ccncc3)c2)C(=O)c2sc3ccccc3c2Cl)CC1 (stereo unspecified) | 6.89

Test: Activity at Smo in mouse C3H10T1/2 cells assessed as induction of cell differentiation into osteoblast incubated for 6 days by alkaline phosphatase assay

SMILES | pEC50
CCCCCCn1c(=O)c(C(=O)Nc2ccc(C(=O)OCCCC)cc2)c(O)c2ccccc21 | 5.82
CCCCCn1c(=O)c(C(=O)Nc2ccc(C(=O)OCCCC)cc2)c(O)c2ccccc21 | 6.22
CCCCCn1c(=O)c(C(=O)Nc2ccc(C(=O)OCC)cc2)c(O)c2ccccc21 | 6.05
CCCCCCn1c(=O)c(C(=O)Nc2ccc(C(=O)OCCC)cc2)c(O)c2ccccc21 | 5.92
CCCOC(=O)c1ccc(NC(=O)c2c(O)c3cc(C)ccc3n(CCC)c2=O)cc1 | 5.92
CCCCCCn1c(=O)c(C(=O)Nc2ccc(C(=O)OCC)cc2)c(O)c2ccccc21 | 5.44
CCCOC(=O)c1ccc(NC(=O)c2c(O)c3cc(OC)c(OC)cc3n(CCC)c2=O)cc1 | 6.44
CCCCCCn1c(=O)c(C(=O)Nc2ccc(C(=O)O)cc2)c(O)c2ccccc21 | 6.22
CCCCCCn1c(=O)c(C(=O)Nc2ccc(C(=O)NCCCC)cc2)c(O)c2ccccc21 | 5.24
CCCOC(=O)c1ccc(NC(=O)c2c(O)c3cccc4c3n(c2=O)CCC4)cc1 | 6.10
CCCCCn1c(=O)c(C(=O)Nc2ccc(C(=O)OCCC)cc2)c(O)c2ccccc21 | 6.15
CCCCn1c(=O)c(C(=O)Nc2ccc(C(=O)OCCC)cc2)c(O)c2ccccc21 | 6.10
CCCCCCn1c(=O)c(C(=O)Nc2ccc(C(=O)OCc3ccccc3)cc2)c(O)c2ccccc21 | 5.70
CCCCCCn1c(=O)c(C(=O)Nc2ccc(C(=O)OC(C)C)cc2)c(O)c2ccccc21 | 5.19
C=CCn1c(=O)c(C(=O)Nc2ccc(C(=O)OCCC)cc2)c(O)c2ccccc21 | 5.47
CCCOC(=O)c1ccc(NC(=O)c2c(O)c3cc(Cl)ccc3n(CCC)c2=O)cc1 | 5.31
CCCCCCn1c(=O)c(C(=O)Nc2ccc(C(=O)OC(C)(C)C)cc2)c(O)c2ccccc21 | 5.51
CCCOC(=O)c1ccc(NC(=O)c2c(O)c3ccccc3n(CCC)c2=O)cc1 | 5.59
CCCOC(=O)c1ccc(NC(=O)c2c(O)c3cc(F)ccc3n(CCC)c2=O)cc1 | 5.62
c1ccc2c(Oc3nc(Nc4ccc(N5CCOCC5)cc4)c4ncn(C5CCCCC5)c4n3)cccc2c1 [Purmorphamine] | 6.10
